Measurements from article PMC5577515, “Peptide‐Directed Binding for the Discovery of Modulators of α‐Helix‐Mediated Protein–Protein Interactions: Proof‐of‐Concept Studies with the Apoptosis Regulator Mcl‐1” (Angewandte Chemie (International Ed. in English), 2017).
Where two headings read alike, the source gives them in different places.

Experiments:
[1] = molecular target: T1, Mcl-1 (UniProt P97287+Q07820); assay: Competitive fluorescence anisotropy (FA) assay, FITC-NoxaB displacement from Mcl-1; type: binding; settings: Table 2; inhibition of binding of 5 nM FITC-NoxaB to 10 nM Mcl-1; PBS, 0.05% Tween-20, pH 7.4; non-linear regression of at least three experiments; errors = transformed greater extreme of standard error; SEM; read-out: FA IC50
T1 construct: amino acid residues 152-189 of mouse Mcl-1 fused with amino acid residues 209-327 of; 8 x His (N); TEV site (N); made in house; host or cells: E. coli BL21(DE3)pLysS
T1 sequence (P97287 152-189 limits assumed): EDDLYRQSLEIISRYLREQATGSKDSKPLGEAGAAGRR
T1 sequence (Q07820 209-327 limits assumed): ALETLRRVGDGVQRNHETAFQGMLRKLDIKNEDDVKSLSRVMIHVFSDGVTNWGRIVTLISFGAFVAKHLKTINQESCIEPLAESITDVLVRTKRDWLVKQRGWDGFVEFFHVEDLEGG
Protocol: Fmoc, 9-fluorenylmethylcarbony. IC50 determined by non -linear regression of at least three experiments.
4. Fluorescence Anisotropy Binding Assay
Fluorescence anisotropy was carried out on a BMG Labtech clariostar microplate reader with a fluorescence anisotropy optic measuring at 482/530 nm. Low -binding, Corning 96 -well black plates were used and all reagents used in the assay were biological grade and purchased from Sigma Aldrich and Novabioche m. All solutions were made using MilliQ water .
Anisotropy values were automatically calculated using the following formula […]
Where r = anisotropy, l a = parallel emission light, lb = perpendicular emission light and I = total […]
KD was determined using GraphPad Prism Version 6.0 software, using the One Site – Total binding […]
Where Bmax is the maximum specific binding, KD is the equilibrium binding constant, and NS is the slope of nonspecific binding. […]
IC50 was determined using GraphPad Prism Version 6.0 software, using a four-parameter logistic model, according to precedent from Ottmann and co-workers.[5] Errors are the transformed greater extreme of the standard error. […]
For binding each well contained 10 µL of Mcl -1 protein in 10-fold dilutions (0.37 pM to 3.7 µM) […]
protein were dissolved in PBS: 0.05% Tween -20 buffer at pH 7.4. Reagents were incubated for 30 min at room temperature prior to reading. Bubbles were removed and 8 data points were generated.
Figure S 1: Fluorescence Anisotropy direct titration.
To confirm reproducibility of
(µ) and standard deviations (σ) were inputted into the following equation:
Inhibition screens were carried out using 10 nM Mcl -1, 5 nM fluorescently-tagged peptide and 100 µM of inhibitor. Compounds were dissolved in DMSO. […]
control (DMSO) were used to define the mini mum and maximum values and ensure the assay was […]
(1 picture or pasted object on this page, not shown here) […]
Bubbles were removed and 8 data points were generated. […]

[2] = molecular target: T2, Bcl-2 (Homo sapiens, UniProt P10415, DEL35-91/INS34DVEENRTEAPEGTESE); assay: Competitive FA assay, FITC-Bid displacement from Bcl-2; type: binding; settings: 5 nM FITC-Bid, 30 nM Bcl-2; up to 100 µM compound
T2 construct: The Bcl-2 protein used in our study has the same construction as that used in the work of Fesik; purchased Dundee Cell Product Ltd
T2 sequence (P10415 with tags, fused parts or gaps INS34DVEEN/V35R/G36T/A37E/P40E/DEL42-87/P88T/V89E/P90S/P91E): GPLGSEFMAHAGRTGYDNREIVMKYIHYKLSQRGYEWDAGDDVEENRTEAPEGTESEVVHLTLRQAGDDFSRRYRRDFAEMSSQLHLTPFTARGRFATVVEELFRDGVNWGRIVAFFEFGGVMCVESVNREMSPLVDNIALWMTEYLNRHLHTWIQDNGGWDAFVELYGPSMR
Protocol: For binding each well contained 10 µL of Bcl -2 protein in 10-fold dilutions (0.90 pM to 9.0 µM) […]
(§1) were dissolved in PBS: 0.05% Tween -20 buffer at pH 7.4. Reagents were incubated for 30 min at room temperature prior to reading. Bubbles were removed and 8 data points were generated.
Figure S 3: Fluorescence Anisotropy direct titration. […] Normalized […]
(§2) (1 picture or pasted object on this page, not shown here)

[3] = molecular target: T3, Bcl-xL (Homo sapiens, UniProt Q07817, DEL45-84); assay: Competitive FA assay, FITC-Bid displacement from Bcl-xL; type: binding; settings: 5 nM FITC-Bid, up to 100 µM compound
T3 construct: The Bcl-xL protein used in our study is a truncated construction of the full-length protein, with; purchased Dundee Cell Product Ltd
T3 sequence (Q07817 with tags, fused parts or gaps DEL45-84): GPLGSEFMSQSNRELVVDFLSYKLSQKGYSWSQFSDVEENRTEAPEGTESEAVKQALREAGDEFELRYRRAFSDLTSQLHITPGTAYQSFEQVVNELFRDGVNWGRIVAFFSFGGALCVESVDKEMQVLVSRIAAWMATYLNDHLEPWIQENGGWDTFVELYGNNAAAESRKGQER
Protocol: as §1, §2
Inhibition screens were carried out using […]

[4] = system: MiaPaCa-2 cells; assay: MTS cytotoxicity assay, MiaPaCa-2; type: cell-based; settings: 72 h, 37 °C, triplicate, at least three experiments, errors = transformed greater extreme of standard error, SEM, read-out: MiaPaCa-2 cell growth inhibition IC50
Protocol: (§3) CUSTOM_[…] ("<1>=[N+]",("charge", 0, 2)) […]
(§4) CUSTOM_[…] ("<1>=[N]=[N]",("bond",1,(2,3))) […]
(§5) CUSTOM_[…] ("<1>([C]=[C])=[N][N]",("bond",1,(3,5))) […]
(§6) The MiaPaCa-2 cell line, BxPC-3 cell line and AsPC-1 cell line were purchased from the European Collection of Cell Cultures (ECACC, Porton Down, UK). MiaPaCa-2 cells were cultured in DMEM media with 2 mM L-glutamine, 100 U/mL penicillin, 100 µg/mL streptomycin and 10% FCS.
(§7) BxPC-3 cells and AsPC-1 cells were cultured in RPMI-1640 media containing 2 mM L-glutamine, 100 U/mL penicillin, 100 µg/mL streptomycin and 10% FCS. Cells were sub-cultured twice weekly and maintained at 37 °C and 5% CO2.
(§8) The anti-proliferative activity of the compounds studied was assessed by MTS assay (Promega) following the manufacturer’s instructions. Cells were seeded at 5 x 103 / 100 μL in a 96-well plate and left untreated or treated with DMSO (vehicle control), or compounds 1-4 (100 μM – […], in well concentration) in triplicate for 72 h at 37 °C with 5% CO2. Following this, MTS assay reagent was added to each well and the plates incubated for 4 h at 37 °C with 5% CO2. The absorbance was measured at 492 nm using the BMG Labtech POLARstarOPTIMA microplate reader. […]

[5] = system: BxPC-3 cells; assay: MTS cytotoxicity assay, BxPC-3; type: cell-based; settings: 72 h, 37 °C, triplicate, at least three experiments, errors = transformed greater extreme of standard error, SEM, read-out: BxPC-3 cell growth inhibition IC50
Protocol: as §3, §4, §5, §6, §7, §8

[6] = system: AsPC-1 cells; assay: MTS cytotoxicity assay, AsPC-1; type: cell-based; settings: for IC50: 72 h, 37 °C, triplicate, at least three experiments, errors = transformed greater extreme of standard error, read-out: AsPC-1 cell growth inhibition IC50; for activity against AsPC-1 cells: at the concentrations evaluated (up to 100 μM), result in words
Protocol: as §3, §4, §5, §6, §7, §8

[7] = system: BxPC-3 cells; assay: Annexin-V-FLUOS staining, phosphatidylserine externalization; type: cell-based; settings: 4 h, fluorescence microscopy
Protocol: Figure 2 Representative small molecules induce hallmarks of apoptosis. A) Increase of caspase‐3 activation in BxPC‐3 cells 4 h after treatment. B) Externalization of phosphatidylserine, a hallmark of apoptosis, was evaluated by exposing BxPC‐3 cells to compounds 18 (25 μM), 20 (5 μM), 21 (5 μM), and 23 (25 μM) for 4 h followed by annexin‐V‐FLUOS. Images were taken at 10× magnification with a GFP filter (top) and white light (bottom). […]
as §3, §4, §5, §6
BxPC-3 cells and AsPC-1 cells were cultured in RPMI-1640 media containing 2 mM L-glutamine, 100 U/mL penicillin, 100 µg/mL streptomycin and 10% FCS. Cells were sub-cultured twice weekly and maintained at 37 °C and 5% CO2. […]
An Annexin-V-FLUOS/Propidium iodide staining kit (Roche Applied Science) was used to detect phosphatidylserine externalization in pancreatic cancer cell line BxPC-3. Cells, seeded in clear 96- […]
and treated with staining kit according to the manufacturer’s protocol. Fluorescence microscopy […]
was used to examine cells and pictures taken with an inverted Leica DMII fluorescence microscope […]
Caspase 3 activation assay […]

| IC50 [1] | binding to Bcl-2 in FA assay [2] | binding to Bcl-xL in FA assay [3] | Structure (SMILES) | IC50 [4] | IC50 [5] | IC50 [6] | activity against AsPC-1 cells [6] | externalization of phosphatidylserine (annexin-V-FLUOS binding) ([7]; 25 μM) | IC50 ([6]; SEM) | externalization of phosphatidylserine (annexin-V-FLUOS binding) ([7]; 5 μM) |
| --- | --- | --- | --- | --- | --- | --- | --- | --- | --- | --- |
| 0.186 ± 0.02 µM | no appreciable binding | no appreciable binding | COC(=O)C(Cc1cn(C23CC4CC(CC(C4)C2)C3)nn1)NC(=O)OCC1c2ccccc2-c2ccccc21 (centres unmarked) [Compound 18] | 15.2 ± 0.75 µM | 29.8 ± 4.15 µM | > 100 µM | ineffective | induce the externalization of phosphatidylserine | – | – |
| 1.7 ± 0.23 µM | – | – | COC(=O)[C@H](Cc1cn(Cc2ccccc2F)nn1)NC(=O)OCC1c2ccccc2-c2ccccc21 [Compound 23, methyl (S)-2-((((9H-fluoren-9-yl)methoxy)carbonyl)amino)-3-(1-(2-fluorobenzyl)-1H-1,2,3-triazol-4-yl)propanoate] | 19.5 ± 1.35 µM | 25.2 ± 2.66 µM | – | – | induce the externalization of phosphatidylserine | 10.5 ± 1.53 µM | – |
| 1.26 ± 0.142 µM | no appreciable binding | no appreciable binding | COC(=O)C(Cc1cn(Cc2ccc(Cl)cc2)nn1)NC(=O)OCC1c2ccccc2-c2ccccc21 (centres unmarked) [Compound 21] | 1.85 ± 3.17 µM | 2.81 ± 0.4 µM | > 100 µM | ineffective | – | – | induce the externalization of phosphatidylserine |
| 0.249 ± 0.051 µM | – | – | COC(=O)C(Cc1cn(Cc2ccc(C#N)cc2)nn1)NC(=O)OCC1c2ccccc2-c2ccccc21 (centres unmarked) [Compound 20] | 6.57 ± 3.92 µM | 5.98 ± 1.14 µM | – | – | – | 2.04 ± 0.62 µM | induce the externalization of phosphatidylserine |
